The test system of series [1] is B10A.4.
Description: (§1) One of the parameters used, as the basis for cytotoxicity assays, is the metabolic activity of viable cells. For example, a microtiter assay, which uses the Calcein AM, is now widely used to quantitate cell proliferation and cytotoxicity. […] Because only metabolically active cells cleave Calcein AM, these assays detect viable cells exclusively. The quantity of reduced Calcein AM corresponds to the number of vital cells in the culture.
(§2) Mouse fibroblasts NIH3T3; mouse immortalized bone marrow macrophages B2.4 and B10A.4, and BJ (human foreskin fibroblasts) were used for routine screening of compounds. The cells were maintained in Nunc/Corning 80 cm^2 plastic tissue culture flasks and cultured in cell culture medium (DMEM with 5 g/l glucose, 2 mM glutamine, 100 U/ml penicillin, 100 μg/ml streptomycin, 10% fetal calf serum and sodium bicarbonate).
(§3) The cell suspensions that were prepared and diluted according to the particular cell type and the expected target cell density (2.500-30.000 cells per well based on cell growth characteristics) were added by pipette (80 μl) into 96/well microtiter plates. Inoculates were allowed a pre-incubation period of 24 hours at 37° C. and 5% CO2 for stabilisation. Four-fold dilutions of the intended test concentration were added at time zero in 20 μl aliquots to the microtiter plate wells. Usually, the compound tested was evaluated at six 4-fold dilutions. […] All compound concentrations were examined in duplicates. Incubations of cells with the tested compounds lasted for 72 hours at 37° C., in 5% CO2 atmosphere and 100% humidity. At the end of the incubation period, the cells were assayed by using Calcein AM. Ten microliters of the stock solution were pipetted into each well and incubated for 1 hour. Fluorescence (FD) was measured with the Labsystem FIA Reader Fluoroscan Ascent (UK).
The test system of series [2] is NIH-3T3.
Description: as §1, §2, §3
For series [3], the system named is BJ (human foreskin fibroblasts).
Description: as §1, §2, §3
The test system of series [4] is B10A.4. This is another data set of the same source.
Description: as §1, §2, §3
In series [5] the test system is BJ (human foreskin fibroblasts). The experiment in a line: Calcein AM cytotoxicity, BJ. The settings on record: read-out: Cytotoxicity IC50, BJ; 72 hours incubation, Calcein AM; highest concentration […].
Description: as §1, §2, §3
Series [6] concerns B10A.4. Put plainly: Calcein AM cytotoxicity, B10A.4 (second column). The settings on record: read-out: Cytotoxicity IC50, B10A.4, 72 hours incubation, highest concentration […].
Description: as §1, §2, §3
The subject of series [7] is B10A.4. The experiment in a line: Calcein AM cytotoxicity, B10A.4 (first column). The settings on record: read-out: Cytotoxicity IC50, B10A.4; 72 hours incubation, Calcein AM; highest concentration […].
Description: as §1, §2, §3
The subject of another series is NIH3T3 fibroblasts. Put plainly: Peroxidation of membrane lipids, MDA by TBA method. In kind it is cell-based, mouse. Particulars: FW = fresh weight. The method, then:
A typical symptom associated with aging is the direct consequence of increased concentrations of reactive oxygen species and lipid peroxidation. […] MDA levels were measured using thiobarbituric acid (TBA method). […] The crude extract was centrifuged at 10,000×g for 5 minutes and 100 μl aliquots of the supernatant were mixed with 100 μl of 0.5% (w/v) TBA containing 0.1% (w/v) trichloroacetic acid. The resulting solution was then incubated for 30 min at 95° C. The samples were rapidly cooled on ice and centrifuged for 5 minutes at 1000×g. […] The newly prepared derivatives of the general formula thus have a protective function against the negative effects of reactive oxygen species that accumulate strongly in the tissues.

Series [8] has as its system NIH-3T3. Put plainly: Calcein AM cytotoxicity, NIH-3T3. Particulars: read-out: Cytotoxicity IC50, NIH-3T3; 72 hours incubation, Calcein AM; highest concentration […].
Description: as §1, §2, §3
Series [9] can be described thus: Calcein AM cytotoxicity, BJ. The settings on record: human, BJ foreskin fibroblasts.
Description: as §1, §2, §3
Series [10] in a line: Calcein AM cytotoxicity, B10A.4 (first column). The settings on record: mouse, B10A.4 immortalized bone marrow macrophages.
Description: as §1, §2, §3
A short description of series [11]: Radical scavenging activity determined by ORAC. Particulars: relative to trolox; Mean ± SD (n = 3). As to the method:
The ability of compounds to scavenge free radicals in vitro was determined by Oxygen Radical Absorbance Capacity (ORAC) method. In brief, fluorescein (100 μl, […]) and 25 μl of compound solution were added into each working well in a 96-well microplate preincubated at 37° C. Thereafter, 25 μL of 250 mM AAPH was quickly added, microplate was shaken for 5 s and the fluorescence (Ex. 485 nm, Em. 510 nm) was read every 3 min over 90 min by using microplate reader Infinite 200 (TECAN, Switzerland). The net area under the curve was used to express antioxidant activity relative to trolox which was used as a standard.

Series [12] can be described thus: Calcein AM cytotoxicity, NIH-3T3. The settings on record: mouse, NIH-3T3 fibroblasts.
Description: as §1, §2, §3

Structures are written as SMILES. Read-outs that look alike come from different tables or passages of the source.

On to `Nc1ncnc2nc[nH]c12` [Adenine, reference compound], for which the IC50 is above 167 µM in the series on B10A.4 [1] (mouse, 72 h); above 167 µM with NIH-3T3 [2] (mouse, 72 h); above 167 µM in series [3] (human, 72 h); above 167 µM in the series with B10A.4 [4] (mouse, 72 h).
Regarding `CC(C)=CCNc1nc(N(C)C)nc2c1ncn2C1CCO1` (stereo not shown) [Compound 13], the IC50 (in series [5]; with B10A.4 [6]; in the series on B10A.4 [7]; in the series on NIH-3T3 [8]) was above 167 µM in each case. Besides, the MDA in the series on NIH3T3 fibroblasts was found to be 13.1 nmol/g FW.
For `CCN(CC)c1nc(NCC=C(C)C)c2ncn(C3CCO3)c2n1` (stereo not shown) [Compound 14], the IC50 (in series [5]; in the series on B10A.4 [6]; in the series with B10A.4 [7]; in the series on NIH-3T3 [8]) was above 167 µM in each case. Moreover, the MDA in the series on NIH3T3 fibroblasts is on record as 11.4 nmol/g FW.
For `CN(C)c1nc(NCc2ccco2)c2ncn(C3CCCO3)c2n1` (stereo not shown) [Compound 30, 2-(Dimethylamino)-6-furfurylamino-9-(tetrahydrofuran-2-yl)-9H-purine], the IC50 at 72 h in series [9], in series [10] and in series [12] was above 167 µM throughout. Moreover, the MDA in the series with NIH3T3 fibroblasts is given as 12.6 nmol/g FW. For the same compound, the “ORAC (compound/trolox)” value in series [11] came to 0.292 ± 0.006.
Consider `Cc1ccc(CNc2nc(N(C)C)nc3c2ncn3C2CCCO2)o1` (stereo not shown) [Compound 46, 2-(Dimethylamino)-6-[(5-methylfurfuryl)amino]-9-(tetrahydrofuran-2-yl)-9H-purine], for which the IC50 at 72 h in series [9], in series [10] and in series [12] was above 167 µM in each case. The compound further yielded an MDA with NIH3T3 fibroblasts of 11.2 nmol/g FW. Besides, in series [11], the “ORAC (compound/trolox)” value was 0.14 ± 0.004.
In the case of `CNc1nc(NCc2occc2OC)c2ncn(C3CCCO3)c2n1` (stereo not shown) [Compound 49], in the series on NIH3T3 fibroblasts, the MDA was 12.3 nmol/g FW. In addition, the IC50 (in the series on B10A.4 [1]; with NIH-3T3 [2]; in series [3]; in the series on B10A.4 [4]) was above 167 µM in each case.
Turning to `CNc1nc(NCc2ccc(OC)cc2)c2ncn(C3CCCO3)c2n1` (stereo not shown) [Compound 84, 2-(Methylamino)-6-[(4-methoxybenzyl)amino]-9-(tetrahydrofuran-2-yl)-9H-purine], the IC50 at 72 h in [9], in series [10] and in series [12] was above 167 µM in each case. Moreover, the MDA in the series on NIH3T3 fibroblasts is given as 10.6 nmol/g FW.
As to `CCNc1nc(NCc2ccco2)c2ncn(C3CCCCO3)c2n1` (stereo not shown) [Compound 111, 2-(ethylamino)-6-furfurylamino-9-(tetrahydro-2H-pyran-2-yl)-9H-purine], the IC50 at 72 h in series [9], in series [10] and in series [12] was above 167 µM each time. The MDA in the series with NIH3T3 fibroblasts was determined as 10.3 nmol/g FW.
As to `CN(C)CCNc1nc(NCc2ccco2)c2ncn(C3CCCCO3)c2n1` (stereo not shown) [Compound 116, 2-{[2-(Dimethylamino)ethyl]amino}-6-furfurylamino-9-(tetrahydro-2H-pyran-2-yl)-9H-purine], the IC50 at 72 h in series [9], in series [10] and in series [12] was above 167 µM in each case. Besides, the MDA in the series on NIH3T3 fibroblasts came out at 9.2 nmol/g FW. In addition, the “ORAC (compound/trolox)” value in series [11] stood at 2.475 ± 0.086.
Regarding `c1coc(CNc2ncnc3nc[nH]c23)c1` [Kinetin, N^6-furfuryladenine, reference compound], the IC50 in series [5] was 148 µM; in the series on B10A.4 [6], 164 µM; in the series with B10A.4 [7] it was above 167 µM; in the series with NIH-3T3 [8], 133 µM. In the series on NIH3T3 fibroblasts, this compound yielded an MDA of 14.2 nmol/g FW.
As to `CC(C)=CCNc1ncnc2nc[nH]c12` [isopentenyladenine, reference compound], the IC50 was 147 µM in the series with B10A.4 [1], 124 µM in the series on NIH-3T3 [2], 134 µM in series [3] and above 167 µM in the series on B10A.4 [4].
As for `Oc1cccc(CNc2ncnc3nc[nH]c23)c1` [meta-topolin, reference compound], the IC50 in the series on B10A.4 [1] was at least 178 µM; in the series with NIH-3T3 [2], at least 167 µM; in series [3] it was 166 µM; in the series with B10A.4 [4], above 167 µM.

The record behind these values is patent US11643413B2, “9-(2-oxacycloalkyl)-9H-purine-2,6-diamine derivatives and their use for the treatment of skin disorders” (UNIVERZITA PALACKEHO V OLOMOUCI, priority 2017, dated 2023).
